Tests used:
[1] = biological target: T1, Avi-KRAS G12D (1-169) GppNHp/RAF1 RBD-3xFLAG (52-151) (Homo sapiens, UniProt P01116, G12D); experiment: Raf1-KRAS G12D-GppNHP disruption HTRF assay (Biological Example 1); format: binding; conditions: KRAS G12D, GppNHp-loaded; Table 11
T1 construct: Avi-KRAS G12D (1-169)
How it was run: (§1)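 Percent activity versus DMSO (100%) was derived from HTRF signal after KRAS–RAF1 RBD protein mix was incubated 1 h at room temperature with shaking and detection reagents were added for a further 1 h.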

[2] = biological target: T2, Avi-KRAS G12R (1-169) GppNHp/RAF1 RBD-3xFLAG (52-151) (Homo sapiens, UniProt P01116, G12R); experiment: Raf1-KRAS G12R-GppNHP disruption HTRF assay (Biological Example 1); format: binding; conditions: KRAS G12R, GppNHp-loaded; Table 11
T2 construct: Avi-KRAS G12R (1-169)
How it was run: as §1

[3] = biological target: T3, Avi-KRAS G12V (1-169) GppNHp/RAF1 RBD-3xFLAG (52-151) (Homo sapiens, UniProt P01116, G12V); experiment: Raf1-KRAS G12V-GppNHP disruption HTRF assay (Biological Example 1); format: binding; conditions: KRAS G12V, GppNHp-loaded; Table 11
T3 construct: Avi-KRAS G12V (1-169)
How it was run: as §1

[4] = biological target: T4, Avi-KRAS WT (1-169) GppNHp/RAF1 RBD-3xFLAG (52-151) (Homo sapiens, UniProt P01116); experiment: Raf1-KRAS WT-GppNHP disruption HTRF assay (Biological Example 1); format: binding; conditions: KRAS WT, GppNHp-loaded; Table 11
T4 construct: Avi-KRAS WT (1-169)
How it was run: as §1

GP2d cells (KRAS G12D) = experiment: Cell-based pERK HTRF assay in GP2d cell (Biological Example 2); conditions: GP2d, GP2d (KRAS G12D) cells, pERK HTRF
How it was run: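 HTRF read-out of pERK (excitation 320 nm, emission 615 nm) after lysates sat 4–24 h at room temperature with Eu cryptate and d2 antibodies.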

SW620 cells (KRAS G12V) = experiment: Cell-based pERK HTRF assay in SW620 cell (Biological Example 4); conditions: Homo sapiens, SW-620, SW620 (KRAS G12V) cells, pERK HTRF
How it was run: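 In SW620 cells grown in RPMI with 10% FBS, a 4 h compound treatment (0.25% DMSO, 9-point curve from 1 μM) preceded lysis. Phospho-ERK levels were then read by time-resolved FRET at 615 nm emission.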

T3 sequence (P01116 1-169 isoform P01116-2 G12V): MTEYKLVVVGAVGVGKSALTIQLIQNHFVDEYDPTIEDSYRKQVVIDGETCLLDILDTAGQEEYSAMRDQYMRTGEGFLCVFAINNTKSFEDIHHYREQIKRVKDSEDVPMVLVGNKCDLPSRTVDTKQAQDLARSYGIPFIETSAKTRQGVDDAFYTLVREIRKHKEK
T1 sequence (P01116 1-169 isoform P01116-2 G12D): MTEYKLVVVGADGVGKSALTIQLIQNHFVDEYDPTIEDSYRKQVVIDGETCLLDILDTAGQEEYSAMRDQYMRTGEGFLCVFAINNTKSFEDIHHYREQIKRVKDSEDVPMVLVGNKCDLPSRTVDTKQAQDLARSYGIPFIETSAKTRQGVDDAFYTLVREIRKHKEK
T4 sequence (P01116 1-169 isoform P01116-2): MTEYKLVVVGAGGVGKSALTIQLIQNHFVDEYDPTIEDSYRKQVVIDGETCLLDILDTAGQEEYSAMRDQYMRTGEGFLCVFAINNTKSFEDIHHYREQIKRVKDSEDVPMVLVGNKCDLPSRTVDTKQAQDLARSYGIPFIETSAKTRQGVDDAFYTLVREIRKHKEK
T2 sequence (P01116 1-169 isoform P01116-2 G12R): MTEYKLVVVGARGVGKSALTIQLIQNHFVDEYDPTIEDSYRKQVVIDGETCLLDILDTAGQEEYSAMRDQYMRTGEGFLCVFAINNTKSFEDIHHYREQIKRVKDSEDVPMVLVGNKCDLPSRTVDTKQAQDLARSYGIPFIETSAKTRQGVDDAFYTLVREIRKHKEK

SMILES	IC50 [1] [µM]	IC50 [2] [µM]	IC50 [3] [µM]	IC50 [4] [µM]	IC50 (GP2d cells (KRAS G12D)) [µM]	IC50 (SW620 cells (KRAS G12V)) [µM]
CC(=O)N1CC[C@@H](N(C)c2nc(OC[C@@]34CCCN3C[C@H](F)C4)nc3c(F)c(-c4ccc(F)c5sc(N)c(C#N)c45)c(C(F)(F)F)cc23)[C@@H]1C [Compound 190, 4-(4-(((2S,3R)-1-acetyl-2-methylpyrrolidin-3-yl)(methyl)amino)-8-fluoro-2-(((2R,7aS)-2-fluorotetrahydro-1H-pyrrolizin-7a(5H)-yl)methoxy)-6-(trifluoromethyl)quinazolin-7-yl)-2-amino-7-fluorobenzo[b]thiophene-3-carbonitrile]	0.1 to 1	0.1 to 1	0.1 to 1	0.1 to 1	< 0.1	0.1 to 1
C[C@H]1COC[C@H](C)N1c1nc(OC[C@@]23CCCN2C[C@H](F)C3)nc2c(F)c(-c3ccc(F)c4sc(N)c(C#N)c34)c(C(F)(F)F)cc12 [Compound 200]	1 to 10	1 to 10	1 to 10	1 to 10	< 0.1	0.1 to 1
C[C@@H]1COC[C@H](C)N1c1nc(OC[C@@]23CCCN2C[C@H](F)C3)nc2c(F)c(-c3ccc(F)c4sc(N)c(C#N)c34)c(C(F)(F)F)cc12 [Compound 201]	0.1 to 1	0.1 to 1	0.1 to 1	0.1 to 1	< 0.1	< 0.1
N#Cc1c(N)sc2c(F)ccc(-c3c(C(F)(F)F)cc4c(N5C6COCC5C6)nc(OC[C@@]56CCCN5C[C@H](F)C6)nc4c3F)c12 [Compound 202]	0.1 to 1	0.1 to 1	0.1 to 1	0.1 to 1	< 0.1	< 0.1
N#Cc1c(N)sc2c(F)ccc(-c3c(C(F)(F)F)cc4c(N5CCCCC5)nc(OC[C@@]56CCCN5C[C@H](F)C6)nc4c3F)c12 [Compound 203]	0.1 to 1	0.1 to 1	1 to 10	0.1 to 1	< 0.1	< 0.1
N#Cc1c(N)sc2c(F)ccc(-c3c(C(F)(F)F)cc4c(N5CC6(CC6)C5)nc(OC[C@@]56CCCN5C[C@H](F)C6)nc4c3F)c12 [Compound 204]	1 to 10	1 to 10	1 to 10	1 to 10	0.1 to 1	0.1 to 1
N#Cc1c(N)sc2c(F)ccc(-c3c(C(F)(F)F)cc4c(N5CC(F)(F)C5)nc(OC[C@@]56CCCN5C[C@H](F)C6)nc4c3F)c12 [Compound 205]	0.1 to 1	0.1 to 1	0.1 to 1	0.1 to 1	< 0.1	< 0.1
CC(=O)N(C)[C@H]1CCN(c2nc(OC[C@@]34CCCN3C[C@H](F)C4)nc3c(F)c(-c4ccc(F)c5sc(N)c(C#N)c45)c(C(F)(F)F)cc23)C1 [Compound 206]	1 to 10	1 to 10	1 to 10	1 to 10	0.1 to 1	0.1 to 1
CC(=O)N(C)[C@@H]1CCN(c2nc(OC[C@@]34CCCN3C[C@H](F)C4)nc3c(F)c(-c4ccc(F)c5sc(N)c(C#N)c45)c(C(F)(F)F)cc23)C1 [Compound 207]	0.1 to 1	0.1 to 1	0.1 to 1	0.1 to 1	< 0.1	0.1 to 1
CN(C)C(=O)CN(C)c1nc(OC[C@@]23CCCN2C[C@H](F)C3)nc2c(F)c(-c3ccc(F)c4sc(N)c(C#N)c34)c(C(F)(F)F)cc12 [Compound 208]	0.1 to 1	1 to 10	0.1 to 1	0.1 to 1	< 0.1	0.1 to 1
CNC(=O)CN(C)c1nc(OC[C@@]23CCCN2C[C@H](F)C3)nc2c(F)c(-c3ccc(F)c4sc(N)c(C#N)c34)c(C(F)(F)F)cc12 [Compound 209]	0.1 to 1	0.1 to 1	0.1 to 1	0.1 to 1	< 0.1	0.1 to 1
CC(=O)N1C[C@H]2CCN(c3nc(OC[C@@]45CCCN4C[C@H](F)C5)nc4c(F)c(-c5ccc(F)c6sc(N)c(C#N)c56)c(C(F)(F)F)cc34)[C@H]2C1 [Compound 210]	1 to 10	1 to 10	0.1 to 1	0.1 to 1	< 0.1	0.1 to 1
CC(=O)N1C[C@@H]2CCN(c3nc(OC[C@@]45CCCN4C[C@H](F)C5)nc4c(F)c(-c5ccc(F)c6sc(N)c(C#N)c56)c(C(F)(F)F)cc34)[C@@H]2C1 [Compound 211]	0.1 to 1	1 to 10	1 to 10	0.1 to 1	< 0.1	0.1 to 1
N#Cc1c(N)sc2c(F)ccc(-c3c(C(F)(F)F)cc4c(N5CCC5)nc(OC[C@@]56CCCN5C[C@H](F)C6)nc4c3F)c12 [Compound 212]	0.1 to 1	0.1 to 1	0.1 to 1	0.1 to 1	< 0.1	< 0.1
N#Cc1c(N)sc2c(F)ccc(-c3c(C(F)(F)F)cc4cnc(OC[C@@]56CCCN5C[C@H](F)C6)nc4c3F)c12 [Compound 213, 2-amino-7-fluoro-4-[8-fluoro-2-[[(2R,8S)-2-fluoro-1,2,3,5,6,7-hexahydropyrrolizin-8-yl]methoxy]-6-(trifluoromethyl)quinazolin-7-yl]benzothiophene-3-carbonitrile]	0.1 to 1	0.1 to 1	0.1 to 1	0.1 to 1	< 0.1	< 0.1
N#CCC[C@H]1CCN(c2nc(OC[C@@]34CCCN3C[C@H](F)C4)nc3c(F)c(-c4ccc(F)c5sc(N)c(C#N)c45)c(C(F)(F)F)cc23)C1 [Compound 214]	1 to 10	1 to 10	1 to 10	1 to 10	0.1 to 1	0.1 to 1
N#Cc1c(N)sc2c(F)ccc(-c3c(C(F)(F)F)cc4c(N5CC(O)C5)nc(OC[C@@]56CCCN5C[C@H](F)C6)nc4c3F)c12 [Compound 215]	0.1 to 1	0.1 to 1	0.1 to 1	0.1 to 1	< 0.1	0.1 to 1
CN(C[C@H](F)CO)c1nc(OC[C@@]23CCCN2C[C@H](F)C3)nc2c(F)c(-c3ccc(F)c4sc(N)c(C#N)c34)c(C(F)(F)F)cc12 [Compound 216]	0.1 to 1	0.1 to 1	0.1 to 1	0.1 to 1	< 0.1	< 0.1
CN(CCS(C)(=O)=O)c1nc(OC[C@@]23CCCN2C[C@H](F)C3)nc2c(F)c(-c3ccc(F)c4sc(N)c(C#N)c34)c(C(F)(F)F)cc12 [Compound 217]	0.1 to 1	0.1 to 1	0.1 to 1	0.1 to 1	< 0.1	< 0.1

Source: patent publication US20260042764A1, “COMPOSITIONS AND METHODS FOR INHIBITION OF KRAS” (TheRas, Inc., priority 2022, published 2026)
